Counter-ions that a name gives are not always drawn. Like-named read-outs stand apart in the source and are kept apart here. A value given as a limit tells only on which side of the number the result lay.

Here are results for four compounds from US5622944A, “Testosterone prodrugs for improved drug delivery” (Affymax Technologies N.V., priority 1995, dated 1997).

Data set [1] is classed as in vitro ADME, mouse. To be noted: for Enhancement in in vitro electrotransport skin flux compared to testosterone: hairless mouse skin, vs unmodified testosterone, 'nearly 10-fold enhancement or greater'; for Flux, active electrotransport (ET): active cells (ETm), 100 uA/cm^2, 6 h. As to the method:
In vitro electrotransport of testosterone/chemical modifier complexes across hairless mouse skin was evaluated as described in Example 28. The experiments were conducted using modified Valia-Chien cells having 1.0 ml donor and 2.5 ml receptor cells. Anodic transport was carried out using a silver wire-based salt bridge in the donor compartment and a silver chloride cathode in the receptor. Cathodic transport was effected by reversing the electrode configuration. The cells were connected in series and a constant current and temperature were supplied to each cell.
After a predetermined period of time (6 h), aliquots were removed from the receiver phase for immediate analysis by HPLC to determine cumulative flux.
The electrotransport of testosterone/chemical modifier complexes was achieved using modified Valia-Chien cells (1.0 ml donor and 2.5 ml receptor cells). Full thickness, hairless mouse skin (Charles River Labs, Wilmington, Mass.) was soaked for one hour in phosphate buffered saline (PBS, pH=7.4) before placing between each compartment (dermal side of skin facing toward receptor). One passive (P1:data) and two or more (ETm :data) active cells were used to screen each compound.
A 10 mM (1 ml) aqueous solution of testosterone drug/prodrug was placed in the donor (unstirred) compartment and the receptor (stirred) was filled with 2.5 ml of PBS. In order to check for egress due to e.g. damaged skin, a zero hour sample of receptor ([…]) was taken one half hour after the drug solution was placed in the donor compartment. Replacement fluid of equal sample volume was added to the receptor compartment immediately after samples were taken.
Anodic electrotransport was achieved using a silver wire (immersed in a polyvinylalcohol-based salt bridge to minimize junction potential) in the donor compartment and a AgCl cathode in the receptor. […] The electrotransport cells were connected in series and constant current (100 uA/cm^2, […] for a skin area of 0.64 cm^2) and temperature (32° C.) were supplied to each cell. After six hours of active/passive transport, aliquots (200 ul) of the receptor were sampled and immediately analyzed by HPLC.
A standard plot of peak area and concentration for each compound was constructed using HPLC. The peak areas of the samples were determined and the concentrations calculated using the standard data. Cumulative flux was calculated using Quickbasic and reported in nmol/cm^2 /hr.

Data set [2] can be described thus: in vitro. The data set is classed as cell-based, human. To be noted: human, dermal fibroblasts, MTT; for CC50 at 2 h: IC50 2 h (cytotoxicity), 2 h incubation; for CC50 at 16 h: IC50 16 h (cytotoxicity), 16 h incubation. As to the method: (§1) As discussed above, the chemical modifier, when present in the subject in its free or released form, and in appropriately administered amounts, should preferably be non-toxic. Additionally, any further in vivo degradation products of the chemical modifier should be non-toxic, as well. Table 2 provides in vitro relative cytotoxicity data for a number of testosterone/chemical modifier complexes, prepared in accordance with the invention. The cytotoxicity assessment was carried out by examining the viability of human dermal fibroblasts in the presence of a number of testosterone/chemical modifier complexes in accordance with the present invention. Details of the experimental protocol are summarized in Example 27.
(§2) The viability of human dermal fibroblasts in the presence of the 17-hydroxy sterol/chemical modifier compounds was assayed using MTT (3-[4,5-dimethylthiazol-2-yl]-2,5-diphenyltetrazolium bromide) reduction to formazan by mitochondrial enzymes as an indicator of cytotoxicity (Swisher, et al.). Confluent fibroblast cells were incubated for 2 or 16 hours in the presence of increasing concentrations of drug complex. At the end of the incubation period, medium was replaced for 4 hours by medium containing the tetrazolium salt, MTT. Metabolism of MTT to a blue formazan was quantitated by spectrophotometry at 540 nm.

Data set [3] in a line: in vitro. In kind it is in vitro ADME. To be noted: human, serum, 37° C. The method, then: The hydrolytic activity of the sterol prodrug may be evaluated by studies of the chemical or enzymatic conversion of the prodrug to the unmodified parent compound, as described in Example 26.
Generally, the sterol/chemical modifier complex is dissolved in a minimum amount of a suitable solvent, such as ethanol, and the resulting solution is added to a sample of human serum. Following incubation, aliquots are then removed at various time points and analyzed to determine the extent of hydrolysis. Table I herein lists the representative serum half-lives of a number of testosterone prodrugs according to the present invention.
The rates of conversion are readily determined, for example by spectrophotometric methods or by gas-liquid or high performance liquid chromatography. Half-lives and other kinetic parameters may then be calculated using standard techniques.
Determination of Testosterone Prodrug Hydrolysis in Serum
Stock solutions (6 mM) of the testosterone prodrugs were prepared in ethanol (dissolution was accomplished by vortexing, sonication, or warming at 37° C., as needed). If required for dissolution, one drop of a co-solvent such as dimethylsulfoxide, dimethylformamide or methanol was added. (Acetonitrile is undesirable because it deactivates the serum enzymes).
HPLC separation methods were established for each study by dilution of the above stock solutions (6 μl) in acetonitrile (1 ml) to form 36 μM solutions. Samples (10 μl) were injected onto a Nucleosil 5C8 column (250×4 mm ID) fitted with an additional guard column (11×4 mm ID) and eluted with a mobile phase of approximately 65% HPLC grade water and 35% trifluoroacetic acid in acetonitrile (0.1% TFA in acetonitrile). Exact proportions of the mobile phase eluents were adjusted in each case to give optimum separation and run times.
Freshly defrosted human serum (3 ml, Sigma) was warmed at 37° C. for five minutes and then the testosterone prodrug stock solution (60 μl) was added with vortexing. […] The aliquots were added to 800 μl of 2% zinc sulfate solution in a 1.5 ml disposable microcentrifuge tube, vortexed immediately and centrifuged at 14,000 RPM for 3 minutes. The supernatants (10 μl) were injected onto the HPLC and peak areas used to determine the percent of parent drug formed or percent of prodrug remaining. Serum blanks were prepared similarly by addition of serum to the zinc sulfate solution, followed by centrifugation. Initial (time=0) samples were prepared by adding serum to the zinc sulfate solution, followed by addition of the complex and separation by centrifugation. The time=0 samples, as well as the original stock solutions, were also used to assess the stability of the complex in the absence of enzyme. Half-lives were determined using the following equation : […]
and plotting time (x ordinate) versus the natural logarithm of percent remaining prodrug (y ordinate) to obtain the slope (m) and the y intercept (b).

A short description of data set [4]: Steady state flux across human skin (iontophoretic). In kind it is in vitro ADME. The method, then: Another useful factor for in vitro assessment of skin permeability of a target drug or drug complex is steady state flux. Typically, when performing a kinetic analysis of the skin-penetrating ability of a target compound through a membrane, such as skin, such an analysis includes an assessment of the lag time and the steady state flux or permeation rate. The ideal membrane for such determinations is human skin.
Steady state flux across human skin was determined for three distinct testosterone/chemical modifier complexes, as shown in FIG. 5 and in Table 4. In FIG. 5, iontophoretic flux rates over time are plotted for testosterone-17β-stachydrine ester, chloride salt [2.9], (closed circles), testosterone-17β-(L-carnitine ethyl ester) carbonate, iodide salt [1.7] (solid squares), and testosterone-17β-choline carbonate, bromide salt [1.4] (open circles). […] Steady state flux values in FIG. 5 are expressed as testosterone equivalents in units of μg/cm^2 h.
Iontophoretically-induced steady state flux across human skin was determined for three distinct testosterone/chemical modifier complexes, testosterone-17β-stachydrine ester, chloride salt [2.9], testosterone-17β-(L-carnitine ethyl ester) carbonate, iodide salt [1.7], and testosterone-17β-choline carbonate, bromide salt [1.4]. The in vitro skin flux experiments were carried out in a similar fashion to those described above, with the exception that human skin was used as the membrane.
Steady state flux values provide an indication of the total amount of drug (or drug complex) that can penetrate the skin, under a given set of experimental conditions.

Data set [5] in a line: Water solubility (H2O sol). To be noted: for solubility: H2O sol.
The subject of another data set is human dermal fibroblasts. The experiment in a line: in vitro. In kind it is cell-based. To be noted: MTT. As to the method: as §1, §2
Setting [6] is: murine skin, 10 mM donor, 32° C.

`C[C@]12CC[C@H]3[C@@H](CCC4=CC(=O)CC[C@@]43C)[C@@H]1CC[C@@H]2OC(=O)OCC[N+](C)(C)C` [Code 1.4, testosterone-17β-choline carbonate, bromide salt]: the “Enhancement in in vitro electrotransport skin flux compared to testosterone” value in data set [1] is listed as at least 10 fold. For the same compound, the “Flux, active electrotransport (ET)” value in data set [1] (setting [6]) was determined as 20.8 ± 21.0 nmol/cm^2 /hr. Further, the “Flux, passive (P)” value in data set [1] (murine skin, passive cells (P), 10 mM donor, 6 h, 32° C.) is listed as 4.0 ± 0.8 nmol/cm^2 /hr. In the data set “in vitro [2]”, the CC50 at 2 h came out at 966 µM and the CC50 at 16 h was 929 µM. This compound also returned a half-life in the data set “in vitro [3]” (HPLC) of 24 min. Moreover, the “Steady State Flux” value in data set [4] (iontophoresis (Table 4)) stood at 68 ± 4 nmole/cm^2 /h. Further, in “Degradation (%/d)”, the Degradation is 0 %/d. Further, in data set [5], the solubility was found to be 4 mg/mL.
Turning to `CCOC(=O)C[C@H](C[N+](C)(C)C)OC(=O)O[C@H]1CC[C@H]2[C@@H]3CCC4=CC(=O)CC[C@]4(C)[C@H]3CC[C@]12C` [Code 1.7, testosterone-17β-(L-carnitine ethyl ester) carbonate, iodide salt], in data set [1] (setting [6]), the “Flux, active electrotransport (ET)” value is 3.6 ± 1.3 nmol/cm^2 /hr. In the data set “in vitro [2]”, this compound returned a CC50 at 2 h of 913 µM and a CC50 at 16 h of 849 µM. Moreover, the half-life in the data set “in vitro [3]” (sample of 82% purity) is 252 min. Besides, the “Steady State Flux” value in data set [4] (iontophoresis (Table 4)) turned out to be 75 ± 14 nmole/cm^2 /h. Further, the Degradation in “Degradation (%/d)” was 0 %/d. Besides, in data set [5], the H2O sol turned out to be 5.3 mg/mL.
As to `C[C@]12CC[C@H]3[C@@H](CCC4=CC(=O)CC[C@@]43C)[C@@H]1CC[C@@H]2OC(=O)[C@@H]1CCC[N+]1(C)C` [Code 2.9, testosterone-17β-stachydrine ester, chloride salt], in the data set “in vitro [2]”, the CC50 at 2 h is 2130 µM and the CC50 at 16 h was 750 µM. The compound further had a half-life in “in vitro [3]” (HPLC) of 822 min. In data set [4] (iontophoresis), the Steady State Flux is given as 184 nmol/cm^2 /h and the “Steady state flux compared with the other two complexes (1.4, 1.7)” value is given as “greater than twice that of either of the other two testosterone/chemical modifier complexes”. Also, the “Steady State Flux” value in data set [4] (iontophoresis (Table 4)) is 184 ± 30 nmole/cm^2 /h. Also, in “Degradation (%/d)”, the Degradation was 0 %/d. This compound also had a solubility in data set [5] of 22 mg/mL.
Consider `CCOC(=O)C[C@H](C[N+](C)(C)C)OC(=O)O[C@H]1CC[C@H]2[C@@H]3CCC4=CC(=O)CC[C@]4(C)[C@H]3CC[C@]12C` [Code 4.1, testosterone-17β-(L-carnitine ethyl ester) carbonate, bromide salt], for which the “Enhancement in in vitro electrotransport skin flux compared to testosterone” value in data set [1] is reported as at least 10 fold. Besides, in data set [1] (setting [6]), the “Flux, active electrotransport (ET)” value was 15.7 ± 5.3 nmol/cm^2 /hr. Besides, the CC50 in the data set on human dermal fibroblasts (read-out: IC50 2 h (cytotoxicity), 2 h incubation, 120 min) came to 1400 µM; with human dermal fibroblasts (read-out: IC50 16 h (cytotoxicity), 16 h incubation, 960 min), 560 µM. This compound also had a half-life in “in vitro [3]” (HPLC) of 240 min. The Degradation in the data set “Degradation (%/d)” turned out to be 1 %/d. The compound also yielded an H2O sol in data set [5] of 21.0 mg/mL.

A word on the half-life: it is how long it takes for the measured level to halve. Lower therefore signals fast loss. The term solubility denotes the dissolved amount per volume that the medium holds. High values mean a readily soluble substance, low ones a poorly soluble substance.
